Results reported in ChEMBL document CHEMBL1201862, “PubChem BioAssay data set” (2004).
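Values below derive from 48-hour exposures of cells grown in 96-well plates, with endpoints linearly interpolated between the two concentrations bracketing the appropriate inhibition level. At the GI50, growth is halved.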 The source made the active and inactive calls. Cut-off read from the data, not from the text of the source: active = GI50 up to about 1.1 µM and inactive = higher.

What was measured:
Assay in all cases: DTP human tumour cell line panel, 48 h
786-0 = tested on: 786-0
A498 = tested on: A498
A549 = tested on: A549
ACHN = tested on: ACHN
BT-549 = tested on: BT-549
CAKI-1 = tested on: CAKI-1
CCRF-CEM = tested on: CCRF-CEM
COLO 205 = tested on: COLO 205
DLD-1 = tested on: DLD-1
DMS-114 = tested on: DMS-114
DMS-273 = tested on: DMS-273
DU-145 = tested on: DU-145
EKVX = tested on: EKVX
HCC 2998 = tested on: HCC 2998
HCT-116 = tested on: HCT-116
HCT-15 = tested on: HCT-15
HL-60 = tested on: HL-60
HOP-18 = tested on: HOP-18
HOP-62 = tested on: HOP-62
HOP-92 = tested on: HOP-92
HT-29 = tested on: HT-29
Hs-578T = tested on: Hs-578T
IGROV-1 = tested on: IGROV-1
K562 = tested on: K562
KM-20L2 = tested on: KM-20L2
KM12 = tested on: KM12
LOX IMVI = tested on: LOX IMVI
M14 = tested on: M14
M19-MEL = tested on: M19-MEL
MCF7 = tested on: MCF7
MDA-MB-231 = tested on: MDA-MB-231
MDA-MB-435 = tested on: MDA-MB-435
MDA-N = tested on: MDA-N
MOLT-4 = tested on: MOLT-4
Malme-3M = tested on: Malme-3M
NCI-H226 = tested on: NCI-H226
NCI-H23 = tested on: NCI-H23
NCI-H460 = tested on: NCI-H460
NCI-H522 = tested on: NCI-H522
NCI/ADR-RES = tested on: NCI/ADR-RES
OVCAR-3 = tested on: OVCAR-3
OVCAR-4 = tested on: OVCAR-4
OVCAR-5 = tested on: OVCAR-5
OVCAR-8 = tested on: OVCAR-8
PC-3 = tested on: PC-3
RPMI-8226 = tested on: RPMI-8226
RXF 393 = tested on: RXF 393
SF-268 = tested on: SF-268
SF-295 = tested on: SF-295
SF-539 = tested on: SF-539
SK-MEL-28 = tested on: SK-MEL-28
SK-MEL-2 = tested on: SK-MEL-2
SK-MEL-5 = tested on: SK-MEL-5
SK-OV-3 = tested on: SK-OV-3
SN12C = tested on: SN12C
SNB-19 = tested on: SNB-19
SNB-75 = tested on: SNB-75
SNB-78 = tested on: SNB-78
SR = tested on: SR
SW-620 = tested on: SW-620
T47D = tested on: T47D
TK-10 = tested on: TK-10
U-251 = tested on: U-251
UACC-257 = tested on: UACC-257
UACC-62 = tested on: UACC-62
UO-31 = tested on: UO-31
XF498 = tested on: XF498
LXFL 529 = tested on: LXFL 529

CCN(CC)CCOC(=O)Cc1cccc2c(=O)cc(-c3ccccc3)oc12
GI50 (786-0): 55.1 µM (inactive) | GI50 (A498): 54.3 µM (inactive) | GI50 (A549): 6.62 µM (inactive) | GI50 (ACHN): 45.2 µM (inactive) | GI50 (BT-549): 40.7 µM (inactive) | GI50 (CAKI-1): 13.6 µM (inactive) | GI50 (CCRF-CEM): 34.4 µM (inactive) | GI50 (COLO 205): 38.4 µM (inactive) | GI50 (DLD-1): 94.8 µM (inactive) | GI50 (DMS-114): 31.8 µM (inactive) | GI50 (DMS-273): 361 µM (inactive) | GI50 (DU-145): 40.3 µM (inactive) | GI50 (EKVX): 40.7 µM (inactive) | GI50 (HCC 2998): 44.6 µM (inactive) | GI50 (HCT-116): 48.3 µM (inactive) | GI50 (HCT-15): 18.5 µM | GI50 (HL-60): 36.3 µM (inactive) | GI50 (HOP-18): 78.2 µM (inactive) | GI50 (HOP-62): 46.8 µM (inactive) | GI50 (HOP-92): 21.7 µM (inactive) | GI50 (HT-29): 44.1 µM (inactive) | GI50 (Hs-578T): 28.3 µM (inactive) | GI50 (IGROV-1): 44.6 µM (inactive) | GI50 (K562): 40.3 µM (inactive) | GI50 (KM-20L2): 95.3 µM (inactive) | GI50 (KM12): 34.8 µM (inactive) | GI50 (LOX IMVI): 29.6 µM (inactive) | GI50 (M14): 41.7 µM (inactive) | GI50 (M19-MEL): 84.5 µM (inactive) | GI50 (MCF7): 54.1 µM (inactive) | GI50 (MDA-MB-231): 26.4 µM (inactive) | GI50 (MDA-MB-435): 55.1 µM (inactive) | GI50 (MDA-N): 22.3 µM (inactive) | GI50 (MOLT-4): 42.9 µM (inactive) | GI50 (Malme-3M): 39.3 µM (inactive) | GI50 (NCI-H226): 38.8 µM (inactive) | GI50 (NCI-H23): 45.8 µM (inactive) | GI50 (NCI-H460): 10.2 µM (inactive) | GI50 (NCI-H522): 40.8 µM (inactive) | GI50 (NCI/ADR-RES): 50 µM (inactive) | GI50 (OVCAR-3): 52.8 µM (inactive) | GI50 (OVCAR-4): 35.9 µM (inactive) | GI50 (OVCAR-5): 57.9 µM (inactive) | GI50 (OVCAR-8): 51.4 µM (inactive) | GI50 (PC-3): 49.3 µM (inactive) | GI50 (RPMI-8226): 35.8 µM (inactive) | GI50 (RXF 393): 41.5 µM (inactive) | GI50 (SF-268): 47.2 µM (inactive) | GI50 (SF-295): 55.6 µM (inactive) | GI50 (SF-539): 44.1 µM (inactive) | GI50 (SK-MEL-28): 54 µM (inactive) | GI50 (SK-MEL-2): > 150 µM (inactive) | GI50 (SK-MEL-5): 32 µM (inactive) | GI50 (SK-OV-3): 48.5 µM (inactive) | GI50 (SN12C): 51.2 µM (inactive) | GI50 (SNB-19): 56.1 µM (inactive) | GI50 (SNB-75): 41.7 µM (inactive) | GI50 (SNB-78): 84.9 µM (inactive) | GI50 (SR): 24.4 µM (inactive) | GI50 (SW-620): 50.7 µM (inactive) | GI50 (T47D): 30.4 µM (inactive) | GI50 (TK-10): 44.1 µM (inactive) | GI50 (U-251): 50.2 µM (inactive) | GI50 (UACC-257): 54.3 µM (inactive) | GI50 (UACC-62): 29 µM (inactive) | GI50 (UO-31): 5.79 µM (inactive) | GI50 (XF498): 18 µM (inactive)

Clc1ccc(CCn2cncn2)c(Cl)c1
GI50 (786-0): > 100 µM (inactive) | GI50 (A549): > 100 µM (inactive) | GI50 (ACHN): > 100 µM (inactive) | GI50 (CAKI-1): > 100 µM (inactive) | GI50 (CCRF-CEM): > 100 µM (inactive) | GI50 (COLO 205): > 100 µM (inactive) | GI50 (DLD-1): > 100 µM (inactive) | GI50 (DMS-114): > 100 µM (inactive) | GI50 (DMS-273): > 100 µM (inactive) | GI50 (EKVX): > 100 µM (inactive) | GI50 (HCC 2998): > 100 µM (inactive) | GI50 (HCT-116): > 100 µM (inactive) | GI50 (HCT-15): > 100 µM | GI50 (HL-60): > 100 µM (inactive) | GI50 (HOP-18): 44.6 µM (inactive) | GI50 (HOP-62): > 100 µM (inactive) | GI50 (HOP-92): > 100 µM (inactive) | GI50 (HT-29): > 100 µM (inactive) | GI50 (IGROV-1): > 100 µM (inactive) | GI50 (K562): > 100 µM (inactive) | GI50 (KM-20L2): > 100 µM (inactive) | GI50 (KM12): > 100 µM (inactive) | GI50 (LXFL 529): > 100 µM (inactive) | GI50 (M14): > 100 µM (inactive) | GI50 (M19-MEL): > 100 µM (inactive) | GI50 (MOLT-4): > 100 µM (inactive) | GI50 (NCI-H226): > 100 µM (inactive) | GI50 (NCI-H23): > 100 µM (inactive) | GI50 (NCI-H460): > 100 µM (inactive) | GI50 (NCI-H522): > 100 µM (inactive) | GI50 (OVCAR-3): > 100 µM (inactive) | GI50 (OVCAR-4): > 100 µM (inactive) | GI50 (OVCAR-5): > 100 µM (inactive) | GI50 (OVCAR-8): > 100 µM (inactive) | GI50 (SF-268): > 100 µM (inactive) | GI50 (SF-295): > 100 µM (inactive) | GI50 (SF-539): > 100 µM (inactive) | GI50 (SK-MEL-28): > 100 µM (inactive) | GI50 (SK-MEL-5): > 100 µM (inactive) | GI50 (SK-OV-3): > 100 µM (inactive) | GI50 (SN12C): > 100 µM (inactive) | GI50 (SNB-19): > 100 µM (inactive) | GI50 (SNB-75): > 100 µM (inactive) | GI50 (SNB-78): > 100 µM (inactive) | GI50 (SR): > 100 µM (inactive) | GI50 (SW-620): > 100 µM (inactive) | GI50 (TK-10): > 100 µM (inactive) | GI50 (U-251): > 100 µM (inactive) | GI50 (UACC-257): > 100 µM (inactive) | GI50 (UACC-62): > 100 µM (inactive) | GI50 (UO-31): > 100 µM (inactive)

CC([C@H]1CCC2C3CCC4CC5(CC[C@]4(C)C3CC[C@@]21C)c1ccccc1C(=O)N5C)N(C)C (stereo not given in full)
GI50 (786-0): 13.9 µM (inactive) | GI50 (A498): 23.8 µM (inactive) | GI50 (A549): 78.5 µM (inactive) | GI50 (ACHN): 44.9 µM (inactive) | GI50 (CAKI-1): > 100 µM (inactive) | GI50 (CCRF-CEM): 44.4 µM (inactive) | GI50 (COLO 205): 33 µM (inactive) | GI50 (DLD-1): 36.5 µM (inactive) | GI50 (DMS-114): 32.4 µM (inactive) | GI50 (DMS-273): 12.9 µM (inactive) | GI50 (HCC 2998): > 100 µM (inactive) | GI50 (HCT-116): 13.3 µM (inactive) | GI50 (HCT-15): 27.7 µM | GI50 (HL-60): 17.5 µM (inactive) | GI50 (HOP-18): > 100 µM (inactive) | GI50 (HOP-62): 31.3 µM (inactive) | GI50 (HOP-92): 50.5 µM (inactive) | GI50 (HT-29): 6.18 µM (inactive) | GI50 (IGROV-1): 40.6 µM (inactive) | GI50 (K562): 15.7 µM (inactive) | GI50 (KM12): 74.8 µM (inactive) | GI50 (LOX IMVI): 1.65 µM (inactive) | GI50 (LXFL 529): 32.2 µM (inactive) | GI50 (M14): 13.9 µM (inactive) | GI50 (M19-MEL): 17 µM (inactive) | GI50 (MOLT-4): 19.2 µM (inactive) | GI50 (Malme-3M): 21.2 µM (inactive) | GI50 (NCI-H23): > 100 µM (inactive) | GI50 (NCI-H460): 21.4 µM (inactive) | GI50 (NCI-H522): 46.9 µM (inactive) | GI50 (OVCAR-3): > 100 µM (inactive) | GI50 (OVCAR-4): 68.1 µM (inactive) | GI50 (OVCAR-5): 29 µM (inactive) | GI50 (OVCAR-8): 39.8 µM (inactive) | GI50 (RPMI-8226): 20.7 µM (inactive) | GI50 (RXF 393): 33 µM (inactive) | GI50 (SF-268): > 100 µM (inactive) | GI50 (SF-295): 18.7 µM (inactive) | GI50 (SF-539): 17.9 µM (inactive) | GI50 (SK-MEL-28): 17.6 µM (inactive) | GI50 (SK-MEL-2): 19.7 µM (inactive) | GI50 (SK-MEL-5): 17.9 µM (inactive) | GI50 (SK-OV-3): > 100 µM (inactive) | GI50 (SN12C): 31.6 µM (inactive) | GI50 (SNB-19): 42.3 µM (inactive) | GI50 (SNB-75): 3.45 µM (inactive) | GI50 (SR): 18.1 µM (inactive) | GI50 (SW-620): 40.6 µM (inactive) | GI50 (TK-10): 26.1 µM (inactive) | GI50 (U-251): 40.4 µM (inactive) | GI50 (UACC-62): 24.5 µM (inactive) | GI50 (UO-31): 13 µM (inactive)
